Among the data in US9511058B2, “Methods for using carboxamide, sulfonamide and amine compounds” (Rigel Pharmaceuticals, Inc., priority 2010, dated 2016) are EC50 values, retold here.

Each structure is given as a SMILES string. Some results are limits rather than exact numbers.

One assay has as its target AMPK. The assay can be described thus: AMPK activation, enzyme-linked immunosorbent assay. In kind it is biochemical. The conditions noted are these: compounds of Table 3 (Table 8).
Consider `O=C(NC1CCN(Cc2ccncc2)CC1)c1cnc(OC2CCN(c3ccc(C(F)(F)F)cc3)CC2)cn1` [3-21, N-(1-(pyridin-4-ylmethyl)piperidin-4-yl)-5-(1-(4-(trifluoromethyl)phenyl)piperidin-4-yloxy)pyrazine-2-carboxamide], for which the EC50 (usually the concentration needed to bring the measured effect to its halfway point) is under 0.1 µM.

On to `N#Cc1ccc(CN2CCC(NC(=O)c3cnc(OC4CCN(c5ccc(C(F)(F)F)cc5)CC4)cn3)CC2)cc1` [3-22, N-(1-(4-cyanobenzyl)piperidin-4-yl)-5-(1-(4-(trifluoromethyl)phenyl)piperidin-4-yloxy)pyrazine-2-carboxamide], for which the EC50 was under 0.1 µM.

In the case of `N#Cc1ccc(CN2CCC(NC(=O)c3cnc(OC4CCN(c5ccc(C(F)(F)F)cc5)CC4)s3)CC2)cc1` [3-23, N-(1-(4-cyanobenzyl)piperidin-4-yl)-2-(1-(4-(trifluoromethyl)phenyl)piperidin-4-yloxy)thiazole-5-carboxamide], the EC50 is under 0.1 µM.

Turning to `N#Cc1ccc(CN2CCC(NC(=O)c3cnc(OC4CCN(c5ccc(C#N)cc5)CC4)s3)CC2)cc1` [3-24, N-(1-(4-cyanobenzyl)piperidin-4-yl)-2-(1-(4-cyanophenyl)piperidin-4-yloxy)thiazole-5-carboxamide], the EC50 is under 0.1 µM.

For the compound `N#Cc1ccc(CN2CCC(NC(=O)c3cnc(OC4CCN(Cc5ccc(C(F)(F)F)cc5)CC4)s3)CC2)cc1` [3-25, N-(1-(4-cyanobenzyl)piperidin-4-yl)-2-(1-(4-(trifluoromethyl)benzyl)piperidin-4-yloxy)thiazole-5-carboxamide], the concentration for a half-maximal effect (EC50) was under 0.1 µM.

In the case of `CC(C)(C)OC(=O)N1CCC(Oc2ncc(C(=O)NC3CCN(Cc4ccc(C#N)cc4)CC3)s2)CC1` [3-26, tert-butyl 4-(5-(1-(4-cyanobenzyl)piperidin-4-ylcarbamoyl)thiazol-2-yloxy)piperidine-1-carboxylate], the EC50 is 1 to 10 µM.

`N#Cc1ccc(CN2CCC(NC(=O)c3ccc(C(=O)N4CCN(Cc5ccc(Cl)cc5)CC4)cc3)CC2)cc1` [3-28, 4-(4-(4-chlorobenzyl)piperazine-1-carbonyl)-N-(1-(4-cyanobenzyl)piperidin-4-yl)benzamide]: the concentration for a half-maximal effect (EC50) was under 0.1 µM.

Consider `N#Cc1ccc(CN2CCC(NC(=O)c3ccc(C(=O)N4CCN(c5ccc(Cl)cc5)CC4)cc3)CC2)cc1` [3-29, 4-(4-(4-chlorophenyl)piperazine-1-carbonyl)-N-(1-(4-cyanobenzyl)piperidin-4-yl)benzamide], for which the EC50 was in the range of 10 to 100 µM.

For `N#Cc1ccc(CN2CCC(NC(=O)c3ccc(C(=O)N4CCN(c5ccc(C(F)(F)F)cn5)CC4)cc3)CC2)cc1` [3-30, N-(1-(4-cyanobenzyl)piperidin-4-yl)-4-(4-(5-(trifluoromethyl)pyridin-2-yl)piperazine-1-carbonyl)benzamide], the concentration for a half-maximal effect (EC50) is under 0.1 µM.

Turning to `N#Cc1ccc(CN2CCC(NC(=O)c3ccc(C(=O)NC4CCN(Cc5ccc(C(F)(F)F)cc5)CC4)cc3)CC2)cc1` [3-31, N^1-(1-(4-cyanobenzyl)piperidin-4-yl)-N^4-(1-(4-(trifluoromethyl)benzyl)piperidin-4-yl)terephthalamide], the EC50 was under 0.1 µM.

The compound `N#Cc1ccc(CN2CCC(NC(=O)c3ccc(C(=O)NC4CCN(c5ccccc5)CC4)cc3)CC2)cc1` [3-32, N^1-(1-(4-cyanobenzyl)piperidin-4-yl)-N^4-(1-phenylpiperidin-4-yl)terephthalamide] yielded a concentration giving a half-maximal response (EC50) of 10 to 100 µM.

Consider `N#Cc1ccc(CN2CCC(NC(=O)c3ccc(C(=O)NC4CCN(Cc5ccccc5)CC4)cc3)CC2)cc1` [3-33, N^1-(1-benzylpiperidin-4-yl)-N^4-(1-(4-cyanobenzyl)piperidin-4-yl)terephthalamide], for which the 50% effective concentration (EC50) fell in the range of 10 to 100 µM.

Consider `N#Cc1ccc(CN2CCC(NC(=O)c3ccc4c(c3)CN(Cc3ccc(F)cc3)CC4)CC2)cc1` [3-34, N-(1-(4-cyanobenzyl)piperidin-4-yl)-2-(4-fluorobenzyl)-1,2,3,4-tetrahydroisoquinoline-7-carboxamide], for which the EC50 was under 0.1 µM.

In turn, `O=C(NC1CCN(Cc2cccnc2)CC1)c1ccc2c(c1)CN(Cc1ccc(F)cc1)CC2` [3-35, 2-(4-fluorobenzyl)-N-(1-(pyridin-3-ylmethyl)piperidin-4-yl)-1,2,3,4-tetrahydroisoquinoline-7-carboxamide] had an EC50 of 1 to 10 µM.

The compound `O=C(NC1CCN(Cc2ccc(C(F)(F)F)cc2)CC1)c1ccc2c(c1)CN(Cc1ccc(F)cc1)CC2` [3-36, 2-(4-fluorobenzyl)-N-(1-(4-(trifluoromethyl)benzyl)piperidin-4-yl)-1,2,3,4-tetrahydroisoquinoline-7-carboxamide] registered an EC50 of 0.1 to 1 µM.

Compound `N#Cc1ccc(CN2CCC(NC(=O)c3ccc4c(c3)CN(Cc3ccc(C#N)cc3)CC4)CC2)cc1` [3-37, 2-(4-cyanobenzyl)-N-(1-(4-cyanobenzyl)piperidin-4-yl)-1,2,3,4-tetrahydroisoquinoline-7-carboxamide] came in with a concentration giving a half-maximal response (EC50) of under 0.1 µM.

As to `N#Cc1ccc(CN2CCc3ccc(C(=O)NC4CCN(Cc5cccnc5)CC4)cc3C2)cc1` [3-38, 2-(4-cyanobenzyl)-N-(1-(pyridin-3-ylmethyl)piperidin-4-yl)-1,2,3,4-tetrahydroisoquinoline-7-carboxamide], the half-maximal effective concentration (EC50) is under 0.1 µM.

Turning to `N#Cc1ccc(CN2CCc3ccc(C(=O)NC4CCN(Cc5ccc(C(F)(F)F)cc5)CC4)cc3C2)cc1` [3-39, 2-(4-cyanobenzyl)-N-(1-(4-(trifluoromethyl)benzyl)piperidin-4-yl)-1,2,3,4-tetrahydroisoquinoline-7-carboxamide], the EC50 lay in the range of 1 to 10 µM.

The assay is the same for the next values; noted with them: compounds of Table 4 (Table 9).
In the case of `N#Cc1ccc(CN2CCC(NC(=O)c3ccc(C(=O)N4CCN(Cc5ccc(C#N)cc5)CC4)cn3)CC2)cc1` [4-1, 5-(4-(4-cyanobenzyl)piperazine-1-carbonyl)-N-(1-(4-cyanobenzyl)piperidin-4-yl)picolinamide], the concentration giving a half-maximal response (EC50) was under 0.5 µM.

On to `N#Cc1ccc(CN2CCC(NC(=O)c3ccc(C(=O)N4CCN(Cc5ccc(F)cc5)CC4)cn3)CC2)cc1` [4-2, N-(1-(4-cyanobenzyl)piperidin-4-yl)-5-(4-(4-fluorobenzyl)piperazine-1-carbonyl)picolinamide], for which the EC50 was under 0.5 µM.

As to `N#Cc1ccc(CN2CCC(NC(=O)c3ccc(C(=O)N4CCN(Cc5ccc(C(F)(F)F)cc5)CC4)cn3)CC2)cc1` [4-3, N-(1-(4-cyanobenzyl)piperidin-4-yl)-5-(4-(4-(trifluoromethyl)benzyl)piperazine-1-carbonyl)picolinamide], the concentration for a half-maximal effect (EC50) is under 0.5 µM.

`O=C(N[C@H]1CCN(Cc2ccc(F)cc2)C1)c1ccc(C(=O)N2CCN(c3ccc(Cl)cc3)CC2)cn1` [4-4, (S)-5-(4-(4-chlorophenyl)piperazine-1-carbonyl)-N-(1-(4-fluorobenzyl)pyrrolidin-3-yl)picolinamide]: the half-maximal effective concentration (EC50) fell in the range of 1 to 5 µM.

`O=C(N[C@H]1CCN(Cc2ccncc2)C1)c1ccc(C(=O)N2CCN(c3ccc(Cl)cc3)CC2)cn1` [4-5, (S)-5-(4-(4-chlorophenyl)piperazine-1-carbonyl)-N-(1-(pyridin-4-ylmethyl)pyrrolidin-3-yl)picolinamide] registered a concentration for a half-maximal effect (EC50) of 1 to 5 µM.

`N#Cc1ccc(CN2CC[C@H](NC(=O)c3ccc(C(=O)N4CCN(c5ccc(Cl)cc5)CC4)cn3)C2)cc1` [4-6, (S)-5-(4-(4-chlorophenyl)piperazine-1-carbonyl)-N-(1-(4-cyanobenzyl)pyrrolidin-3-yl)picolinamide] returned a concentration for a half-maximal effect (EC50) of 0.5 to 1 µM.

In turn, `O=C(N[C@H]1CCN(Cc2ccc(Cl)cc2)C1)c1ccc(C(=O)N2CCN(c3ccc(Cl)cc3)CC2)cn1` [4-7, N-(1-(4-chlorobenzyl)pyrrolidin-3-yl)-5-(4-(4-chlorophenyl)piperazine-1-carbonyl)picolinamide] returned an EC50 of 1 to 5 µM.

The compound `O=C(N[C@H]1CCN(Cc2ccc(C(F)(F)F)cc2)C1)c1ccc(C(=O)N2CCN(c3ccc(Cl)cc3)CC2)cn1` [4-8, 5-(4-(4-chlorophenyl)piperazine-1-carbonyl)-N-(1-(4-(trifluoromethyl)benzyl)pyrrolidin-3-yl)picolinamide] yielded a 50% effective concentration (EC50) of 1 to 5 µM.

The same assay, now with this note: compounds of Table 5 (Table 10).
Regarding `COc1ccc(CN2CCC(Oc3ccc(C(=O)NC4CCN(Cc5ccccc5)CC4)cc3Cl)CC2)cc1` [5-1, N-(1-benzylpiperidin-4-yl)-3-chloro-4-(1-(4-methoxybenzyl)piperidin-4-yloxy)benzamide], the EC50 is under 1 µM.

`COc1cc(C(=O)NC2CCN(Cc3ccccc3)CC2)ccc1OC1CCN(Cc2ccccc2)CC1` [5-2, N-(1-benzylpiperidin-4-yl)-4-(1-benzylpiperidin-4-yloxy)-3-methoxybenzamide] gave a concentration giving a half-maximal response (EC50) of under 1 µM.

In turn, `O=C(NC1CCN(Cc2ccccc2)CC1)c1ccc(OC2CCN(Cc3ccco3)CC2)cc1` [5-3, N-(1-benzylpiperidin-4-yl)-4-(1-(furan-2-ylmethyl)piperidin-4-yloxy)benzamide] showed a concentration giving a half-maximal response (EC50) of 1 to 10 µM.

In turn, `Cn1cncc1CN1CCC(Oc2ccc(C(=O)NC3CCN(Cc4ccccc4)CC3)cc2)CC1` [5-4, N-(1-benzylpiperidin-4-yl)-4-(1-((1-methyl-1H-imidazol-5-yl)methyl)piperidin-4-yloxy)benzamide] showed a 50% effective concentration (EC50) of over 100 µM.

Consider `Cn1cncc1CN1CCC(Oc2ccc(C(=O)NC3CCN(Cc4ccccc4)CC3)cc2Cl)CC1` [5-5, N-(1-benzylpiperidin-4-yl)-3-chloro-4-(1-((1-methyl-1H-imidazol-5-yl)methyl)piperidin-4-yloxy)benzamide], for which the EC50 was in the range of 50 to 100 µM.

In turn, `O=C(NC1CCN(Cc2ccccc2)CC1)c1ccc(OC2CCN(Cc3ccncc3)CC2)c(Cl)c1` [5-6, N-(1-benzylpiperidin-4-yl)-3-chloro-4-(1-(pyridin-4-ylmethyl)piperidin-4-yloxy)benzamide] had an EC50 of under 1 µM.

`COc1cc(C(=O)NC2CCN(Cc3ccccc3)CC2)ccc1OC1CCN(CCCc2ccccc2)CC1` [5-7, N-(1-benzylpiperidin-4-yl)-3-methoxy-4-(1-(3-phenylpropyl)piperidin-4-yloxy)benzamide]: the EC50 is under 1 µM.

`COc1cc(C(=O)NC2CCN(Cc3ccccc3)CC2)ccc1OC1CCN(c2cccs2)CC1` [5-8, N-(1-benzylpiperidin-4-yl)-3-methoxy-4-(1-(thiophen-2-yl)piperidin-4-yloxy)benzamide] showed an EC50 of 1 to 10 µM.

For the compound `COc1cc(C(=O)NC2CCN(Cc3ccccc3)CC2)ccc1OC1CCN(S(C)(=O)=O)CC1` [5-9, N-(1-benzylpiperidin-4-yl)-3-methoxy-4-(1-(methylsulfonyl)piperidin-4-yloxy)benzamide], the EC50 was 20 to 50 µM.
